Data: publication PMC9415161, “PEG-Bottlebrush Stabilizer-Based Worm-like Nanocrystal Micelles with Long-Circulating and Controlled Release for Delivery of a BCR-ABL Inhibitor against Chronic Myeloid Leukemia (CML)” (Pharmaceutics, 2022)
Like-named read-outs stand apart in the source and are kept apart here.

What was measured:
[1] = tested on: K562 cells; experiment: In vitro cell toxicity assay (CCK8); assay type: cell-based; settings: Homo sapiens, K562, 72 h
Method: The K562 cell line used in this work was ordered from the American Type Culture Collection (ATCC, Manassas, VA, USA). The K562 cells were cultured in RPMI 1640 with 10% fetal bovine serum (FBS) (VivaCell, Shanghai, China) and 1% penicillin/streptomycin in a humidified incubator at 37 °C with 5% CO2. Firstly, K562 cells were seeded into 96-well plates with 100 μL of 1640 medium containing 3000 cells per well, and were incubated at 37 °C under 5% CO2. Subsequently, the cells in each well were treated with a series of concentrations of free 053 in DMSO, 053-F127 NCs, and 053-PPP NC micelles, respectively. Cell viability was determined using the Cell Counting Kit-8 (CCK8) (Best Bio, Shanghai, China) based on the manufacturer’s instructions. Subsequently, 10 μL of CCK8 solution was added to each well, and the absorbance of each well at a wavelength of 450 nm was measured using a microplate reader (iMARK, Bio-Rad, Hercules, CA, USA) after further incubation for 1 h at 37 °C. The absorbance was normalized and plotted as a function of drug concentration. The GI50 values were calculated using GraphPad Prism 8.0 (San Diego, CA, USA).

[2] = In vivo pharmacokinetics after tail vein injection; settings: male, Sprague-Dawley, rat, plasma, rats, IV 1 mg/kg, n = 3
Method: The in vivo profiling of free 053, 053-F127 NCs, and 053-PPP NC micelles were evaluated and compared using PK tests in male Sprague Dawley rats with individual weights of ~200 g (from the Laboratory Animal Center of Anhui Medical University, Hefei, China), approved by the Animal Ethics Committee of Hefei Institutes of Physical Science, Chinese Academy of Sciences, Hefei, China (approval code: DW-2019-20). The rats were housed in an air-conditioned room at 23 ± 2 °C and humidity of ~50%. After acclimatizing the facilities for 1 week, the rats were randomly divided into three groups (three per group): free 053, 053-F127 NC, and 053-PPP NC micelle. The rats were fasted for 12 h prior to drug administration. Free 053 (dissolved in 10% v/v DMSO in glucose 5%), 053-F127 NC, and 053-PPP NC micelle suspensions were administrated by tail vein injection at a dose of 1 mg/kg. Blood samples were collected in heparinized tubes at 2, 5, 15, 30 min and 1, 2, 4, 6, 9, 12, and 24 h (for all three groups). For the 053-PPP NC micelle group, blood was sampled at another three time points of 72, 96, and 120 h. The collected fresh blood samples were immediately processed in accordance with the following protocol: (1) collection of 100 μL of plasma by centrifuging the blood samples for 3 min at 6000 rpm and 4 °C, followed by storage at –80 °C for further analysis; (2) 20 μL of 200 ng/mL of caffeine (as an internal standard solution) was added to 100 μL of each plasma sample; (3) 400 μL of methanol was applied, vortexed for 5 min, and centrifuged at 14,000 rpm for 10 min; (4) the collected supernatants were quantified via LC-MS/MS analysis by loading 5 μL of supernatant. The collected data were analyzed by the non-compartment model using WinNonlin 8.1 software (Pharsight Corporation, Mountain View, CA, USA) to elucidate the PK parameters.

[3] = tested on: K562 xenograft; experiment: In vivo anticancer efficacy in K562 xenograft mouse model; set-up: species or system Bal B/c nude mice; settings: 40 mg/kg QD, PO, n = 5
Method: Female Bal B/c nude mice were used to establish K562 xenograft mouse models according to the protocol described above. When the tumors reached 150–200 mm^3, the mice were randomly divided into seven groups (n = 5) for the evaluation of antitumor efficacy in vivo at 40 mg/kg: Vehicle, free 053 QD (Once a day, PO), 053-F127 NC QD (IV), 053-F127 NC Q2D (Once every other day, IV), 053-PPP NC QD (IV), 053-PPP NC Q2D (IV), and 053-PPP NC Q4D (once every 4 days, IV). During the treatment, body weight and tumor growth were measured daily. Tumor volumes (V) were calculated as follows (Equation (3)):V (mm^3) = [(W^2 × L)/2],(3) where width (W) and length (L) are defined as the lower and higher of two measurements, respectively. When the tumors of the vehicle group reached the limit of the animal ethical regulations, the test was stopped. All the mice were euthanized, and major tissues/organs were harvested for immunohistochemical (IHC) analysis, including HE, Ki-67, and TUNEL staining.

[4] = tested on: K562 cells; set-up: method as in PMID 26789553; settings: against K562 cells; cited from earlier work
[5] = set-up: method as in PMID 26789553; settings: cited from earlier work
[6] = set-up: method as in PMID 26789553; settings: 50 mg/kg, P.O.; cited from earlier work

- AUC(0-inf) [2]: 0.509 ± 0.132 µg·h/mL
- AUC(0-t) [2]: 0.499 ± 0.132 µg·h/mL
- C0 [2]: 0.555 ± 0.142 µg/mL
- Cmax [2]: 0.364 ± 0.042 µg/mL
- Tmax [2]: 1.8 min
- clearance [2]: 2.06 L/h/kg
- half-life [2]: 2.02 ± 0.42 h
- MRT last ([2]; read-out: MRT0–t): 2.54 ± 0.55 h
- MRT inf ([2]; read-out: MRT0–∞): 2.78 ± 0.57 h
- Vd ([2]; read-out: Vz): 5.87 ± 1.33 L/kg
Compound: CNc1ncncc1C(=O)Nc1cc(NC(=O)c2cccc(C(F)(F)F)c2)ccc1C [Free 053, N-(2-methyl-5-(3-(trifluoromethyl)benzamido)phenyl)-4-(methylamino)pyrimidine-5-carboxamide]
- GI50 [1]: 5.95 ± 1.95 nM
- tumor inhibition efficacy compared with the vehicle group [3]: did not show a significant difference
- GI50 [4]: ~14 nM
- oral bioavailability [5]: ~ 24%
- TGI [6]: 48.3%
